Our source for the MIC and CC50 values is ChEMBL document CHEMBL4513161, “CO-ADD screening of MMV (CH) - Pandemic Response Box” (2021).

For one experiment, the system named is Candida albicans. Nature of the experiment: microbe, parasite or virus in culture. The note with it: ATCC 90028, ASSAY_TEST Inhibition of Fungal Growth, detection method Absorption (OD530), plate type 384well, NBS, CORNING #3640.
The next experiment has as its system Staphylococcus aureus. Nature of the experiment: microbe, parasite or virus in culture. The conditions noted are these: ATCC 43300, 18 h, ASSAY_TEST Inhibition of Bacterial Growth, detection method Absorption (OD600), MEDIA CAMHB, plate type 384well, NBS, CORNING #3640.
The test system of experiment [1] is Pseudomonas aeruginosa. Nature of the experiment: microbe, parasite or virus in culture. The conditions noted are these: ATCC 27853, 18 h, ASSAY_TEST Inhibition of Bacterial Growth, detection method Absorption (OD600), MEDIA CAMHB, plate type 384well, NBS, CORNING #3640.
Description: Antibacterial activity against Pseudomonas aeruginosa ATCC 27853 (CO-ADD:GN_042); MIC in CAMBH media using NBS plates, by OD(600)
Another experiment relates to Klebsiella pneumoniae. Nature of the experiment: microbe, parasite or virus in culture. The note with it: ATCC 700603, 18 h, ASSAY_TEST Inhibition of Bacterial Growth, detection method Absorption (OD600), MEDIA CAMHB, plate type 384well, NBS, CORNING #3640.
In the next experiment the test system is HEK293. The experiment in a line: cells. It counts as functional, Homo sapiens, ATCC CRL1573. The note with it: Homo sapiens, ATCC CRL1573, HEK293; ASSAY_TEST Inhibition of Cell Viability; detection method Resazurin; Fluorescence (ex560/em590); MEDIA DMEM with 10% FBS; plate type 384well; TC; CORNING #3712; time 18 hr; read-out: CC50. In general terms: The colour change of resazurin is a common sign of viable cells or microbes.

In a further experiment the test system is Escherichia coli. Nature of the experiment: microbe, parasite or virus in culture. The conditions noted are these: ATCC 25922, 18 h, ASSAY_TEST Inhibition of Bacterial Growth, detection method Absorption (OD600), MEDIA CAMHB, plate type 384well, NBS, CORNING #3640.
For another experiment, the system named is Acinetobacter baumannii. Nature of the experiment: microbe, parasite or virus in culture. The conditions noted are these: ATCC 19606, 18 h, ASSAY_TEST Inhibition of Bacterial Growth, detection method Absorption (OD600), MEDIA CAMHB, plate type 384well, NBS, CORNING #3640.
Experiment [2] deals with Pseudomonas aeruginosa. Nature of the experiment: Antibacterial activity against Pseudomonas aeruginosa PAO397 [PAO1 d(mexAB-oprM) d(mexCD-oprJ) d(mexEF-oprN) d(mexJKL) d(mexXY) d(opmH)] (CO-ADD:GN_211); MIC in CAMBH media using NBS plates, by OD(600). It counts as functional. The conditions noted are these: ASSAY_TEST Inhibition of Bacterial Growth, detection method Absorption (OD600), MEDIA CAMHB, plate type 384well, CORNING #3640, time 18 hr.

Values after ≈ are worked out from the molar mass of the structure shown.

By CC50 is commonly meant the concentration giving 50% cytotoxicity.

Description for Acinetobacter baumannii: Antibacterial activity against Acinetobacter baumannii ATCC 19606 (CO-ADD:GN_034); MIC in CAMBH media using NBS plates, by OD600
Description for Candida albicans: Antifungal activity against Candida albicans ATCC 90028 (CO-ADD:FG_001); MIC in YNB media using NBS plates, by OD630
Description for Cryptococcus neoformans: Antifungal activity against Cryptococcus neoformans H99 ATCC 208821 (CO-ADD:FG_002); MIC in YNB media using NBS plates, by Resazurin OD(600-570)
Description for Escherichia coli: Antibacterial activity against Escherichia coli ATCC 25922 (CO-ADD:GN_001); MIC in CAMBH media using NBS plates, by OD(600)
Description for Klebsiella pneumoniae: Antibacterial activity against Klebsiella pneumoniae MDR ATCC 70063 (CO-ADD:GN_003); MIC in CAMBH media using NBS plates, by OD(600)
Description for Staphylococcus aureus: Antibacterial activity against Staphylococcus aureus MRSA ATCC 43300 (CO-ADD:GP_020); MIC in CAMBH media, using NBS plates, by OD(600)

In the case of `COC(=O)Nc1nc2cc(Sc3ccccc3)ccc2[nH]1` [FENBENDAZOLE], the MIC with Cryptococcus neoformans was 0.312 µM (≈ 0.0935 µg/mL); in the experiment with Candida albicans it was > 20 µM; in the experiment on Staphylococcus aureus it was > 20 µM; against Pseudomonas aeruginosa [1], > 20 µM; in the experiment on Klebsiella pneumoniae, > 20 µM; in the experiment on Escherichia coli, > 20 µM. Further, the MIC with Acinetobacter baumannii and in the experiment on Pseudomonas aeruginosa [2] was > 20 µM each time. In addition, the CC50 with HEK293 worked out at 8.24 µM.
As to `CC1=C(/C=C/C(C)=C/C=C/C(C)=C/C(=O)Nc2ccc(O)cc2)C(C)(C)CCC1` [FENRETINIDE], the MIC in the experiment on Cryptococcus neoformans, against Candida albicans, against Staphylococcus aureus, in the experiment on Pseudomonas aeruginosa [1], against Klebsiella pneumoniae and in the experiment on Escherichia coli was > 20 µM in each case. In addition, the MIC in the experiment with Acinetobacter baumannii and in the experiment with Pseudomonas aeruginosa [2] was > 20 µM in each case. Also, the CC50 in the experiment with HEK293 was > 20 µM.
Turning to `Nc1nc2c(ncn2/C=C2/CC2(CO)CO)c(=O)[nH]1` [FILOCICLOVIR], the MIC against Cryptococcus neoformans, with Candida albicans, in the experiment with Staphylococcus aureus, in the experiment on Pseudomonas aeruginosa [1], in the experiment with Klebsiella pneumoniae and with Escherichia coli was > 20 µM throughout. Further, the MIC against Acinetobacter baumannii and in the experiment on Pseudomonas aeruginosa [2] was > 20 µM each time. In the experiment on HEK293, the CC50 is > 20 µM.
For the molecule `CC(C)Oc1cccc(NC(=O)c2ccccc2C(F)(F)F)c1` [FLUTOLANIL], the MIC against Cryptococcus neoformans, in the experiment on Candida albicans, with Staphylococcus aureus, with Pseudomonas aeruginosa [1], in the experiment on Klebsiella pneumoniae and in the experiment with Escherichia coli was > 20 µM in each case. The MIC against Acinetobacter baumannii and in the experiment with Pseudomonas aeruginosa [2] was > 20 µM throughout. In the experiment with HEK293, the CC50 is > 20 µM.
Take `CCCCc1ccc(C(=O)O)nc1` [FUSARIC ACID]: the MIC in the experiment on Cryptococcus neoformans, in the experiment on Candida albicans, in the experiment on Staphylococcus aureus, in the experiment with Pseudomonas aeruginosa [1], against Klebsiella pneumoniae and with Escherichia coli was > 20 µM in each case. For the same molecule, the MIC against Acinetobacter baumannii and against Pseudomonas aeruginosa [2] was > 20 µM throughout. Besides, the CC50 in the experiment with HEK293 is > 20 µM.
Turning to `CC(=O)O[C@H]1C[C@@]2(C)[C@@H](C[C@@H](O)[C@H]3[C@@]4(C)CC[C@@H](O)[C@@H](C)[C@@H]4CC[C@@]32C)/C1=C(\CCC=C(C)C)C(=O)O` [FUSIDIC ACID], the MIC in the experiment on Cryptococcus neoformans was > 20 µM; against Candida albicans it was > 20 µM; against Staphylococcus aureus, 0.312 µM (≈ 0.161 µg/mL); in the experiment with Pseudomonas aeruginosa [1], > 20 µM; with Klebsiella pneumoniae it was > 20 µM; against Escherichia coli, > 20 µM. The MIC with Acinetobacter baumannii and against Pseudomonas aeruginosa [2] was > 20 µM throughout. In addition, in the experiment with HEK293, the CC50 is > 20 µM.
Consider `Nc1nc2c(ncn2COC(CO)CO)c(=O)[nH]1` [GANCICLOVIR], for which the MIC with Cryptococcus neoformans, in the experiment on Candida albicans, against Staphylococcus aureus, against Pseudomonas aeruginosa [1], in the experiment on Klebsiella pneumoniae and against Escherichia coli was > 20 µM throughout. In addition, the MIC against Acinetobacter baumannii and against Pseudomonas aeruginosa [2] was > 20 µM each time. Besides, the CC50 in the experiment on HEK293 is > 20 µM.
Regarding `N[C@H](CCC(=O)N[C@@H](Cc1c[nH]c2ccccc12)C(=O)O)C(=O)O` [GOLOTIMOD], the MIC in the experiment on Cryptococcus neoformans, in the experiment on Candida albicans, with Staphylococcus aureus, against Pseudomonas aeruginosa [1], in the experiment on Klebsiella pneumoniae and in the experiment on Escherichia coli was > 20 µM each time. The MIC with Acinetobacter baumannii and with Pseudomonas aeruginosa [2] was > 20 µM throughout. In the experiment with HEK293, the CC50 is > 20 µM.
Take `CN1CCN(c2ccc3[nH]c(-c4ccc5[nH]c(-c6ccc(O)cc6)nc5c4)nc3c2)CC1` [HOECHST 33258]: the MIC is 2.5 µM (≈ 1.06 µg/mL) in the experiment with Cryptococcus neoformans; 5 µM (≈ 2.12 µg/mL) against Candida albicans; > 20 µM in the experiment with Staphylococcus aureus; > 20 µM in the experiment with Pseudomonas aeruginosa [1]; > 20 µM against Klebsiella pneumoniae; > 20 µM against Escherichia coli. The MIC in the experiment on Acinetobacter baumannii is > 20 µM; in the experiment on Pseudomonas aeruginosa [2] it was 20 µM (≈ 8.49 µg/mL). For the same molecule, the half-maximal cytotoxic concentration (CC50) with HEK293 is > 20 µM.
On to `Cc1ccc(NC(=O)c2ccc(CN3CCN(C)CC3)cc2)cc1Nc1nccc(-c2cccnc2)n1` [IMATINIB], for which the MIC in the experiment with Cryptococcus neoformans, with Candida albicans, against Staphylococcus aureus, in the experiment with Pseudomonas aeruginosa [1], in the experiment on Klebsiella pneumoniae and against Escherichia coli was > 20 µM each time. Moreover, the MIC in the experiment on Acinetobacter baumannii and against Pseudomonas aeruginosa [2] was > 20 µM each time. Further, the half-maximal cytotoxic concentration (CC50) in the experiment with HEK293 was > 20 µM.
Turning to `NC(=O)c1ccc(I)c([N+](=O)[O-])c1` [INIPARIB], the MIC against Cryptococcus neoformans, in the experiment with Candida albicans, with Staphylococcus aureus, in the experiment on Pseudomonas aeruginosa [1], in the experiment on Klebsiella pneumoniae and against Escherichia coli was > 20 µM each time. The MIC in the experiment on Acinetobacter baumannii and in the experiment with Pseudomonas aeruginosa [2] was > 20 µM each time. Moreover, the CC50 in the experiment with HEK293 is > 20 µM.
Turning to `CNCC(=O)OCc1cccnc1N(C)C(=O)OC(C)[n+]1cnn(C[C@](O)(c2cc(F)ccc2F)[C@@H](C)c2nc(-c3ccc(C#N)cc3)cs2)c1` (stereo partly drawn) [ISAVUCONAZONIUM], the MIC in the experiment with Cryptococcus neoformans was 2.5 µM; with Candida albicans it was ≤ 0.156 µM; in the experiment with Staphylococcus aureus it was > 20 µM; with Pseudomonas aeruginosa [1] it was > 20 µM; in the experiment on Klebsiella pneumoniae, > 20 µM; against Escherichia coli, > 20 µM. Besides, the MIC in the experiment with Acinetobacter baumannii and in the experiment on Pseudomonas aeruginosa [2] was > 20 µM in each case. Besides, in the experiment on HEK293, the CC50 is > 20 µM.
Turning to `NNC(=O)c1ccncc1` [ISONIAZID], the MIC in the experiment on Cryptococcus neoformans, with Candida albicans, against Staphylococcus aureus, in the experiment with Pseudomonas aeruginosa [1], with Klebsiella pneumoniae and in the experiment with Escherichia coli was > 20 µM in each case. Moreover, the MIC against Acinetobacter baumannii and in the experiment on Pseudomonas aeruginosa [2] was > 20 µM throughout. Moreover, the CC50 in the experiment on HEK293 was > 20 µM.
As for `Cc1c(OCC(F)(F)F)ccnc1C[S+]([O-])c1nc2ccccc2[nH]1` (stereo not drawn) [LANSOPRAZOLE], the MIC in the experiment with Cryptococcus neoformans, in the experiment on Candida albicans, in the experiment on Staphylococcus aureus, against Pseudomonas aeruginosa [1], against Klebsiella pneumoniae and in the experiment on Escherichia coli was > 20 µM each time. In addition, the MIC in the experiment on Acinetobacter baumannii and in the experiment on Pseudomonas aeruginosa [2] was > 20 µM each time. For the same molecule, the half-maximal cytotoxic concentration (CC50) in the experiment with HEK293 is > 20 µM.
As for `Cc1oncc1C(=O)Nc1ccc(C(F)(F)F)cc1` [LEFLUNOMIDE], the MIC in the experiment with Cryptococcus neoformans, against Candida albicans, in the experiment on Staphylococcus aureus, against Pseudomonas aeruginosa [1], against Klebsiella pneumoniae and in the experiment on Escherichia coli was > 20 µM each time. The MIC in the experiment on Acinetobacter baumannii and in the experiment on Pseudomonas aeruginosa [2] was > 20 µM each time. Moreover, in the experiment on HEK293, the cytotoxic concentration (CC50) was > 20 µM.
For `COc1cccc(N2CCN(C3=Nc4c(F)cccc4[C@H](CC(=O)O)N3c3cc(C(F)(F)F)ccc3OC)CC2)c1` [LETERMOVIR], the MIC with Cryptococcus neoformans, with Candida albicans, in the experiment with Staphylococcus aureus, against Pseudomonas aeruginosa [1], in the experiment on Klebsiella pneumoniae and in the experiment on Escherichia coli was > 20 µM throughout. Also, the MIC in the experiment with Acinetobacter baumannii and in the experiment with Pseudomonas aeruginosa [2] was > 20 µM throughout. Further, in the experiment on HEK293, the CC50 is > 20 µM.
Take `CC(C)Oc1ccc(-n2cnc3cc(/C=C\c4ccc(C(C)(C)O)cc4)ccc32)cc1` [LHF-535]: the MIC with Cryptococcus neoformans, in the experiment on Candida albicans, against Staphylococcus aureus, with Pseudomonas aeruginosa [1], against Klebsiella pneumoniae and against Escherichia coli was > 20 µM throughout. The MIC with Acinetobacter baumannii and against Pseudomonas aeruginosa [2] was > 20 µM throughout. Besides, the 50% cytotoxic concentration (CC50) in the experiment on HEK293 turned out to be 10.6 µM.
